Activity calls are given as the source filed them. The calls are words filed in the database; no cut-off is given here.
How the values were obtained:
[1] = target: T1, Histone deacetylase (Homo sapiens) (UniProt Q13547+O15379+Q9UBN7+Q92769+Q9UQL6+Q8WUI4+Q9BY41+Q96DB2+P56524+Q9UKV0+Q969S8); experiment: Inhibition of HDAC in human U-937 cells assessed as upregulation of histone H3 acetylation at lysine 14 residue at 5 uM incubated for 24 hrs by immunoblotting analysis; type: cell-based
HCT-116 [2] = experiment: Induction of cell cycle arrest in human HCT-116 assessed as accumulation of cells in G2/M phase at 1 to 5 uM incubated for 24 hrs by FACS analysis relative to SAHA; type: functional; details: dose 1-5 µM
U-937 [3] = experiment: Cytotoxicity against human U-937 cells assessed as cell death at 5 uM incubated for 24 hrs by PI staining based FACS analysis relative to control; type: functional
U-937 [4] = experiment: Induction of cell cycle arrest in human U-937 assessed as decrease accumulation of cells in G1 phase at 5 uM incubated for 24 hrs by FACS analysis; type: functional, cell-based
HCT-116 [5] = experiment: Cytotoxicity against human HCT-116 cells assessed as reduction in cell death at 1 uM incubated for 24 hrs by PI staining based FACS analysis; type: functional
U-937 [6] = experiment: Induction of apoptosis in human U-937 cells assessed as increased p21 protein expression level at 1 to 5 uM incubated for 24 hrs by immunoblotting analysis; type: functional, cell-based; details: dose 1-5 µM
U-937 [7] = experiment: Induction of cell cycle arrest in human U-937 assessed as reduced accumulation of cells in S phase at 1 uM incubated for 24 hrs by FACS analysis; type: functional, cell-based
HCT-116 [8] = experiment: Cytotoxicity against human HCT-116 cells assessed as cell death at 5 uM incubated for 24 hrs by PI staining based FACS analysis relative to control; type: functional
U-937 [9] = experiment: Induction of cell cycle arrest in human U-937 assessed as increase accumulation of cells in G2/M phase at 1 to 5 uM incubated for 24 hrs by FACS analysis; type: functional, cell-based; details: dose 1-5 µM
Histone deacetylase = type: subcellular, Homo sapiens, Nucleus; details: hela
Description: Inhibition of HDAC in human HeLa cell nuclear extract using Kac fluorogenic peptide as substrate containing residues 379-382 of p53 by fluorescence assay

[10] = target: T1, Histone deacetylase (Homo sapiens); experiment: Inhibition of HDAC in human HCT-116 cells assessed as upregulation of acetyl alpha-tubulin level at 1 to 5 uM incubated for 24 hrs by immunoblotting analysis; type: cell-based; details: dose 1-5 µM
HCT-116 [11] = experiment: Induction of apoptosis in human HCT-116 cells assessed as increased p21 protein expression level at 1 to 5 uM incubated for 24 hrs by immunoblotting analysis; type: functional, cell-based; details: dose 1-5 µM
[12] = target: T1, Histone deacetylase (Homo sapiens); experiment: Inhibition of HDAC in human U-937 cells assessed as upregulation of acetyl alpha-tubulin level at 5 uM incubated for 24 hrs by immunoblotting analysis; type: cell-based
[13] = target: T1, Histone deacetylase (Homo sapiens); experiment: Inhibition of HDAC in human U-937 cells assessed as upregulation of histone H3 acetylation at lysine 14 residue at 1 uM incubated for 24 hrs by immunoblotting analysis; type: cell-based
[14] = target: Histone deacetylase 4 (Homo sapiens) (UniProt P56524); experiment: Inhibition of HDAC4 (unknown origin) at 10 uM using fluorogenic peptide as substrate pre-incubated for 15 mins followed by substrate addition incubated for 30 mins by fluorescence assay; details: time 45.0 min
[15] = target: Histone deacetylase 2 (Homo sapiens) (UniProt Q92769); experiment: Inhibition of HDAC2 (unknown origin) at 10 uM using fluorogenic peptide as substrate pre-incubated for 15 mins followed by substrate addition incubated for 30 mins by fluorescence assay; details: time 45.0 min
U-937 [16] = experiment: Cytotoxicity against human U-937 cells assessed as cell death at 1 uM incubated for 24 hrs by PI staining based FACS analysis relative to control; type: functional
[17] = target: T1, Histone deacetylase (Homo sapiens); experiment: Inhibition of HDAC in human HCT-116 cells assessed as upregulation of histone H3 acetylation at lysine 14 residue at 1 uM incubated for 24 hrs by immunoblotting analysis; type: cell-based
Histone deacetylase 1 [18] = target: T2, Histone deacetylase 1 (Homo sapiens, UniProt Q13547); experiment: Inhibition of HDAC1 (unknown origin) using fluorogenic peptide as the substrate containing residues 379-382 of p53 pre-incubated for 15 mins followed by substrate addition incubated for 30 mins by multimode plate reader
[19] = target: T3, Protein deacetylase HDAC6 (Homo sapiens) (UniProt Q9UBN7); experiment: Inhibition of HDAC6 (unknown origin) at 10 uM using fluorogenic peptide as substrate pre-incubated for 15 mins followed by substrate addition incubated for 30 mins by fluorescence assay; details: time 45.0 min
T3 sequence (whole entry): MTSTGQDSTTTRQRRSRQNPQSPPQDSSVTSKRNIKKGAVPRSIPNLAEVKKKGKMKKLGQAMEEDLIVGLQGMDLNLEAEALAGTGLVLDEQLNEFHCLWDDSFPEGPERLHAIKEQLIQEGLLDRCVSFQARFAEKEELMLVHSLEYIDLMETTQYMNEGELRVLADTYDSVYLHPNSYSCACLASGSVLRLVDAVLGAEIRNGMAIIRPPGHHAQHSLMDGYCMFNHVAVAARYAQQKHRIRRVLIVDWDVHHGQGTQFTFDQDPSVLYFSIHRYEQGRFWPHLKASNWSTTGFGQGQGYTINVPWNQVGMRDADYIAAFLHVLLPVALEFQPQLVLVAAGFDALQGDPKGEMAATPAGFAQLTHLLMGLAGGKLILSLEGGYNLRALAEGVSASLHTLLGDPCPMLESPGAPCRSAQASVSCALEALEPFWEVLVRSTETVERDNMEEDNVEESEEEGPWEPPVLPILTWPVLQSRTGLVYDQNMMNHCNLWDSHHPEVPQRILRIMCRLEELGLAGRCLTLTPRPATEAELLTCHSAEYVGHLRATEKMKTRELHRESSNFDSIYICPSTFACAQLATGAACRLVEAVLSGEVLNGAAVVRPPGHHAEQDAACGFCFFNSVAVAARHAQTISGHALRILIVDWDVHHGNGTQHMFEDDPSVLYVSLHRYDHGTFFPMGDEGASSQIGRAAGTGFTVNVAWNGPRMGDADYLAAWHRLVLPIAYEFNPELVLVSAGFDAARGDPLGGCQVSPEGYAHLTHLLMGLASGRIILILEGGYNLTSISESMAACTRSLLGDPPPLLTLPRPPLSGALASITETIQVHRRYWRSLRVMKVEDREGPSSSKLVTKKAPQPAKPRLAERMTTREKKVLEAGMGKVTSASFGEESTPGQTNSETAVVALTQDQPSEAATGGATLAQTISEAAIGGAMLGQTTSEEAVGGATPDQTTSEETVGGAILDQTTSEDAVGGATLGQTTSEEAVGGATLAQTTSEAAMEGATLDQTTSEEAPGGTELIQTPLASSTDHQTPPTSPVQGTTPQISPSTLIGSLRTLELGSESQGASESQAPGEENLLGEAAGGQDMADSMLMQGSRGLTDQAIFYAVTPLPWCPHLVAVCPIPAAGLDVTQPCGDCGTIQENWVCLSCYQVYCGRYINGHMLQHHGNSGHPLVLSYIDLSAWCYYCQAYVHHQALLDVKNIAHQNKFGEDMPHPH

Histone deacetylase 1 [20] = target: T2, Histone deacetylase 1; experiment: Inhibition of HDAC1 (unknown origin) at 10 uM using fluorogenic peptide as substrate pre-incubated for 15 mins followed by substrate addition incubated for 30 mins by fluorescence assay relative to control; details: time 45.0 min
[21] = target: T4, Histone deacetylase 8 (Homo sapiens) (UniProt Q9BY41); experiment: Inhibition of HDAC8 (unknown origin) at 10 uM using fluorogenic peptide as substrate pre-incubated for 15 mins followed by substrate addition incubated for 30 mins by fluorescence assay; details: time 45.0 min
T4 sequence (whole entry): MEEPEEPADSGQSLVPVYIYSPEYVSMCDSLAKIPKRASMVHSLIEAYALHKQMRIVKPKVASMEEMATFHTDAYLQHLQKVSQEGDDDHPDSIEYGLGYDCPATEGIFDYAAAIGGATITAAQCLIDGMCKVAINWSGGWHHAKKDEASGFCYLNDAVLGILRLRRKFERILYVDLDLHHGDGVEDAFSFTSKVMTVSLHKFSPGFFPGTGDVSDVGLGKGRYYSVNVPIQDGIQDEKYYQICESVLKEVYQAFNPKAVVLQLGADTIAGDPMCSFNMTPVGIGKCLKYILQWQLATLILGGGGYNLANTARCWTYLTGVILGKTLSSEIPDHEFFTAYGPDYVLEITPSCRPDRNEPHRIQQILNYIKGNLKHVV

[22] = target: T5, Protein deacetylase HDAC6 (Homo sapiens, UniProt Q9UBN7); experiment: Inhibition of HDAC6 (unknown origin) using fluorogenic peptide as the substrate containing residues 379-382 of p53at 10 uM pre-incubated for 15 mins followed by substrate addition incubated for 30 mins by multimode plate reader
T5 sequence (Q9UBN7 whole entry): T3 sequence (whole entry)

[23] = target: Histone deacetylase 3 (Homo sapiens) (UniProt O15379); experiment: Inhibition of HDAC3 (unknown origin) at 10 uM using fluorogenic peptide as substrate pre-incubated for 15 mins followed by substrate addition incubated for 30 mins by fluorescence assay; details: time 45.0 min
U-937 [24] = experiment: Induction of cell cycle arrest in human U-937 assessed as increase accumulation of cells in G2/M phase at 5 uM incubated for 24 hrs by FACS analysis; type: functional, cell-based
U-937 [25] = experiment: Induction of cell cycle arrest in human U-937 assessed as decrease accumulation of cells in S phase at 5 uM incubated for 24 hrs by FACS analysis; type: functional, cell-based
HCT-116 [26] = experiment: Induction of cell cycle arrest in human HCT-116 assessed as accumulation of cells in G2/M phase at 5 uM incubated for 24 hrs by FACS analysis; type: functional, cell-based
U-937 [27] = experiment: Induction of cell cycle arrest in human U-937 assessed as decrease accumulation of cells in G1 phase at 1 to 5 uM incubated for 24 hrs by FACS analysis; type: functional, cell-based; details: dose 1-5 µM
HCT-116 [28] = experiment: Induction of cell cycle arrest in human HCT-116 assessed as decrease accumulation of cells in G1 phase at 1 to 5 uM incubated for 24 hrs by FACS analysis; type: functional, cell-based; details: dose 1-5 µM
HCT-116 [29] = experiment: Cytotoxicity against human HCT-116 cells assessed as cell viability incubated for 24 hrs by MTT assay; type: functional, cell-based; details: HCT-116, 24 h
U-937 [30] = experiment: Cytotoxicity against human U-937 cells assessed as cell death at 1 to 5 uM incubated for 24 hrs by PI staining based FACS analysis relative to control; type: functional; details: dose 1-5 µM
U-937 [31] = experiment: Cytotoxicity against human U-937 cells assessed as cell viability incubated for 24 hrs by MTT assay; type: functional, cell-based; details: U-937, 24 h
HCT-116 [32] = experiment: Induction of cell cycle arrest in human HCT-116 assessed as decrease accumulation of cells in S phase at 1 to 5 uM incubated for 24 hrs by FACS analysis; type: functional, cell-based; details: dose 1-5 µM
U-937 [33] = experiment: Induction of cell cycle arrest in human U-937 assessed as decrease accumulation of cells in S phase at 1 to 5 uM incubated for 24 hrs by FACS analysis; type: functional, cell-based; details: dose 1-5 µM

T2 sequence (Q13547 whole entry, the tested form may be a part): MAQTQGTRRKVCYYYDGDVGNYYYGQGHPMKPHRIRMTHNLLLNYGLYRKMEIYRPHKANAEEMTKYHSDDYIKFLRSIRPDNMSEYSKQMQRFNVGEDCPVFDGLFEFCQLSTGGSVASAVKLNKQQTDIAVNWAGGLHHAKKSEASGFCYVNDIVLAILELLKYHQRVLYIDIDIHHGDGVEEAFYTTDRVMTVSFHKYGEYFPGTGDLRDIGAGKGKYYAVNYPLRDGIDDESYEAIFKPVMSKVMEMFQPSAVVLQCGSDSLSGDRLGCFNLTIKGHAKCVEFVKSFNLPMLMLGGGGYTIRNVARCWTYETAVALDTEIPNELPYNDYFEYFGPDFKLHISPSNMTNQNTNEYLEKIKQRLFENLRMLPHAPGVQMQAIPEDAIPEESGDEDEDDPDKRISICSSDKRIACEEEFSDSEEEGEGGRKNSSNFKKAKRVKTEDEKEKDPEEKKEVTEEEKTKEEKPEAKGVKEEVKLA
Sequence of Histone deacetylase 4 (Homo sapiens) (P56524 whole entry): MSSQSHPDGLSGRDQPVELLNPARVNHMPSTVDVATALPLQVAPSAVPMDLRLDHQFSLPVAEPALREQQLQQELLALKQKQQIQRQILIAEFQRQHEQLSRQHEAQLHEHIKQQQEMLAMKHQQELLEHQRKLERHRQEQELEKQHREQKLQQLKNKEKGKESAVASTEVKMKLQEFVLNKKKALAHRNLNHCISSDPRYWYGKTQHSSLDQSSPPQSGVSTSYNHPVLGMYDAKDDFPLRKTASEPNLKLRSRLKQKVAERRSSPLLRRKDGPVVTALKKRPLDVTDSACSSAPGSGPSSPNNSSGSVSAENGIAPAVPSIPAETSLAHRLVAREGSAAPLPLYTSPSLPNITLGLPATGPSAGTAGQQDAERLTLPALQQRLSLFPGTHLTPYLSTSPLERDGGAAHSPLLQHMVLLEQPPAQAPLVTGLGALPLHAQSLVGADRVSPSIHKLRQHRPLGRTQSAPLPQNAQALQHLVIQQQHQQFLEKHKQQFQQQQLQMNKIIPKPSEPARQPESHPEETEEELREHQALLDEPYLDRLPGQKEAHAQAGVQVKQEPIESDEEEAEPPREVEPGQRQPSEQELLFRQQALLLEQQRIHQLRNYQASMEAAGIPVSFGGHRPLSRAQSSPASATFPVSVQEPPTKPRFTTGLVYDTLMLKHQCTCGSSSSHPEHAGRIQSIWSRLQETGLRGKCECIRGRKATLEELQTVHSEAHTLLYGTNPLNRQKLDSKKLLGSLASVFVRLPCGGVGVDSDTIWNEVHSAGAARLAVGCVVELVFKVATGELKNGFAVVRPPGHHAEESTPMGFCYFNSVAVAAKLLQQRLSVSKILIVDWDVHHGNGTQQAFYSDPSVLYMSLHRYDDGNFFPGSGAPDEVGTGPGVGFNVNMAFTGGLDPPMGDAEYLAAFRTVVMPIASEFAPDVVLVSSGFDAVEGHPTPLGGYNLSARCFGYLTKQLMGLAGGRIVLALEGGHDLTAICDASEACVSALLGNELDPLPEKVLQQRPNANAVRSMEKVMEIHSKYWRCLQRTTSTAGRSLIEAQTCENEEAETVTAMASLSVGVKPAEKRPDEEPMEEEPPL
Sequence of Histone deacetylase 3 (Homo sapiens) (O15379 whole entry): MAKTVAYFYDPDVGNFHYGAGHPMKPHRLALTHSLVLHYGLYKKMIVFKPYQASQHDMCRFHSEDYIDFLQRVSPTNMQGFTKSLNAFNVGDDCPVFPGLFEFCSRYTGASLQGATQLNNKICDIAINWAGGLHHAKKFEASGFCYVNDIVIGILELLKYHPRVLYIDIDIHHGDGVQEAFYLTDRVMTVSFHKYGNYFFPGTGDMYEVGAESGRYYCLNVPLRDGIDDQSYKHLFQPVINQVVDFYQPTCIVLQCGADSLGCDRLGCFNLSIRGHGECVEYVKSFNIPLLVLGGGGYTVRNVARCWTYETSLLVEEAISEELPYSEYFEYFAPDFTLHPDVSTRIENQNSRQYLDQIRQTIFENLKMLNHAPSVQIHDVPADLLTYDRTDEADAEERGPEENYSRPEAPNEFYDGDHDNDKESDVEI
Sequence of Histone deacetylase 2 (Homo sapiens) (Q92769 whole entry): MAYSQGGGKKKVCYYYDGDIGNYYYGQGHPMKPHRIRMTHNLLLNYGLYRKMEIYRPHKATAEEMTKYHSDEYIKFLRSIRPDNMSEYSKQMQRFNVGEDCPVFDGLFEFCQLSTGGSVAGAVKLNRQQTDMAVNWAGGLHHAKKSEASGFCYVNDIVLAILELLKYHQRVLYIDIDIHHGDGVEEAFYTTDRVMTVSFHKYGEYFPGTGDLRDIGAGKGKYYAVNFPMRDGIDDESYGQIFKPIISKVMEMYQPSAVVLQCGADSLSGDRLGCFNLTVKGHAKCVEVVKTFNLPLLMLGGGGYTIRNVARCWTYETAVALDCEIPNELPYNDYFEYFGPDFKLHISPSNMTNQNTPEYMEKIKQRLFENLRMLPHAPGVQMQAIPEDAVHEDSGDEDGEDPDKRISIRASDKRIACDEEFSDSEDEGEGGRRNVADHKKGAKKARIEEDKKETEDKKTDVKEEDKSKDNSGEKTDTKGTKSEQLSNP

Row | SMILES | Activity [1] | Activity (HCT-116 [2]) | Activity (U-937 [3]) [%] | Activity (U-937 [4]) | Activity (HCT-116 [5]) | Activity (U-937 [6]) | Activity (U-937 [7]) | Activity (HCT-116 [8]) [%] | Activity (U-937 [9]) | IC50 (Histone deacetylase) [nM] | Activity [10] | Activity (HCT-116 [11]) | Activity [12] | Activity [13] | also measured
1 | O=C(CCCCCN1C(=O)CC(c2cccc(Br)c2)Sc2ccccc21)NO (racemic) | Active | Active | ~12 | Active | Active | Active | Active | 22 | Active | 293.3 | Active | Active | Active | – | –
2 | O=C(CCCCCN1C(=O)C[C@@H](c2ccc(Cl)c(Cl)c2)Sc2ccccc21)NO | Active | Active | ~12 | Active | Active | Active | Active | 22 | Active | 165.1 | Active | Active | – | Active | –
3 | O=C(NCC1(c2nc(-c3ccccc3)cs2)CCOCC1)c1cccc(-c2noc(C(F)(F)F)n2)c1 | – | – | – | – | – | – | – | – | – | – | – | – | – | – | inhibition [14]: 99.2%
4 | O=C(CCCCCN1C(=O)CC(c2ccccc2)S(=O)(=O)c2ccccc21)NO (racemic) | Active | ~75% | ~12 | Active | – | Active | Active | – | Active | 38.6 | Active | Active | Active | Active | inhibition [15]: 100%; Activity (U-937 [16]): 12%; inhibition [14]: 51.4%; Activity [17]: Active; IC50 (Histone deacetylase 1 [18]): 115 nM; inhibition [19]: 98.8%; inhibition (Histone deacetylase 1 [20]): 99.1%; inhibition [21]: 87.3%; IC50 [22]: 23.2 nM; inhibition [23]: 99.3%
5 | O=C(CCCCCN1C(=O)CC(c2ccc(Cl)c(Cl)c2)Sc2ccccc21)NO (racemic) | Active | Active | ~12 | Active | Active | Active | Active | 22 | Active | 229.2 | Active | Active | Active | – | –
6 | O=C(CCCCCCC(=O)Nc1ccccc1)NO [VORINOSTAT] | – | – | ~10 | Active | – | – | – | – | – | – | – | – | – | – | Activity (U-937 [24]): Active; Activity (U-937 [25]): Active; Activity (HCT-116 [26]): Active
7 | O=C(CCCCCN1C(=O)CC(c2ccc(Cl)c(Cl)c2)S(=O)(=O)c2ccccc21)NO (racemic) | Active | Active | – | – | – | Active | – | – | Active | 27.1 | Active | Active | Active | Active | Activity (U-937 [27]): Active; Activity (HCT-116 [28]): Active; Activity [17]: Active; IC50 (HCT-116 [29]): 18.5 µM; Activity (U-937 [30]): ~6%; IC50 (U-937 [31]): 13.9 µM; IC50 (Histone deacetylase 1 [18]): 88.2 nM; inhibition [19]: 99.5%; inhibition (Histone deacetylase 1 [20]): 96.9%; Activity (HCT-116 [32]): Active; Activity (U-937 [33]): Active; IC50 [22]: 12.3 nM

— ChEMBL document CHEMBL5365438, “2-Substituted 1,5-benzothiazepine-based HDAC inhibitors exert anticancer activities on human solid and acute myeloid leukemia cell lines” (Bioorg Med Chem, 2023)
